The values below come from publication PMC9694544, “Conteltinib (CT-707) in patients with advanced ALK-positive non-small cell lung cancer: a multicenter, open-label, first-in-human phase 1 study” (BMC Medicine, 2022).

For this assay, the system named is brain metastasis of ALK-positive NSCLC. In words: Intracranial response in patients with measurable brain metastatic lesions. It counts as in vivo, human.

Consider `COc1cc(N2CCC(N3CCN(C)CC3)CC2)ccc1Nc1nc2c(c(Nc3ccccc3S(=O)(=O)NC(C)C)n1)CCN2` [Conteltinib], for which the “Intracranial DCR (95% CI)” value is on record as 100.0% (2.5-100.0) (300 mg BID (n=1)), 100.0% (15.8-100.0) (450 mg QD (n=2)) and 66.7% (9.4-99.2) (600 mg QD (n=3)). Also, the “Intracranial ORR (95% CI)” value runs as follows: (300 mg BID (n=1)) 0.0% (0.0-97.5); (450 mg QD (n=2)) 50% (1.3-98.7); (600 mg QD (n=3)) 33.3% (0.8-90.6).
